The text below walks through data of patent US20180064659A1, “AGENTS USEFUL FOR TREATING OBESITY, DIABETES AND RELATED DISORDERS” (The Regents of the University of California, priority 2015, published 2018).

The test relates to FL83B cells. Put plainly: High-throughput in-cell western blot (ICWB) screen for insulin sensitizers, P-Akt over P-ERK. Particulars: 1689 molecules screened. In kind it is cell-based, mouse. As for the experimental part: Drugs were screened by in-cell western blot (ICWB) for their ability to stimulate phospho-Akt activation in the presence of trace or 10 nM insulin (FIG. 4A). Cells in wells were treated with drugs, and the activity (phosphorylation) of Akt was determined by a phospho-Akt specific antibody. In FIG. 4A, low insulin was given and drugs a, b, c, stimulated Akt activation. In FIG. 4B, 10 nM insulin was given and a, b, and c stimulated signaling over background, and d and […] inhibited. […] Drugs were primarily screened for their ability to promote insulin-dependent stimulation of (phospho)Akt, then secondarily screened for lack of activity to stimulate (phospho) Erk, or a high Akt/Erk ratio. Such drugs are expected to cause insulin sensitivity, resistance to obesity, and longevity. Some drugs having these desired characteristics are Shc inhibitors.
Primary ICWB was performed as follows: FL83B cells were seeded on 384 well plates, 10,000 cells per well in F-12 media supplemented with 10% FBS and 25 mM glucose; 48 hours later the media was replaced with F-12, 25 mM glucose without FBS for sixteen hours; cells were supplemented with assigned drug at desired concentration for 1 hour in duplicate and then, the cells were stimulated with desired concentration of insulin for ten minutes for Akt activation and fifteen minutes for ERK activation measurements. After that time the media was removed and replaced with fixing solution of 5% Formaldehyde in PBS, pH=7.4, 30 minutes later, the fixing solution was replaced with the permeabilization buffer, 0.1% triton X100 in PBS for 40 minutes. […] After the incubation with the secondary antibodies for one hour at room temperature, the wells were washed again two times with the 0.1% tween-20 in PBS and scanned on the Li-Cor Odyssey infrared scanner; images were analyzed with the Li-Cor Odyssey software. […] Phospho-Akt, Phospho-ERK signals than were normalized by tubulin signals in each well and the densitometric results were analyzed to identify drugs which improved metabolic insulin sensitivity without inducing the mitogenic ERK activation. […]

Turning to `CN(C)C(=N)N=C(N)N` [metformin], the “Score rank in screening assay” value is listed as “scored in the top 35 out of 1689 molecules”.
